# Laboratory results from patent publication US4496591A, “Insecticidal bis-carbamate sulfides” (priority 1981, dated 1985).
# What was measured:
# Assay type in all cases: in vivo
# [1] = tested on: bean aphid (Aphis fabae Scop.); assay: Bean aphid foliage spray test; design: key: A: excellent control; B: partial control; C: no control at 500 ppm; conditions: 500 parts per million, 24 hour
# Description: (§1) Suspensions of the test compounds were prepared by dissolving one gram of compound in 50 milliliters of acetone in which had been dissolved 0.1 gram (10 percent of the weight of compound) of an alkylphenoxy polyethoxyethanol surfactant, as an emulsifying or dispersing agent. The resulting solution was mixed into 150 milliliters of water to give roughly 200 milliliters of a suspension containing the compound in finely divided form. The thus-prepared stock suspension contained 0.5 percent by weight of compound. The concentrations in parts per million by weight employed in the tests described hereinbelow were obtained by appropriate dilutions of the stock suspension with water. The test procedures were as follows:
# Adults and nymphal stages of the bean aphid (Aphis fabae Scop.) reared on potted dwarf nasturtium plants at 68°-70° F. and 50±5 percent relative humidity, constituted the test insects. For testing purposes, the number of aphids per pot were standardized to 100-150 by trimming plants containing excess aphids.
# The test compounds were formulated by diluting the stock suspension with water to give a suspension containing 500 parts of test compound per million parts of final formulation.
# The potted plants (one pot per compound tested) infested with 100-150 aphids, were placed on a revolving turntable and sprayed with 100-110 milliliters of test compound formulation by use of a DeVilbiss spray gun set at 40 psig. air pressure. This application, which lasted 25 seconds, was sufficient to wet the plants to run-off. As a control, 100-110 milliliters of a water-acetone-emulsifier solution containing no test compound was also sprayed on infested plants. After spraying, the pots were placed on their sides on a sheet of white standard mimeograph paper which had been previously ruled to facilitate counting. Temperature and humidity in the test room during the 24 hour holding period were 68°-70° F. and 50±5 percent, respectively. Aphids which fell onto the paper and were unable to remain standing after being uprighted were considered dead. Aphids remaining on the plants were observed closely for movement and those which were unable to move the length of the body upon stimulation by prodding were considered dead.
# (§2) In these tests the pesticidal activity of the compounds at the indicated dosage rate against aphid, Southern Armyworm, Bean Beetle and housefly was rated as follows: […]
# [2] = tested on: Mexican bean beetle (Epilachna varivestis, Muls.) larvae; assay: Mexican bean beetle leaf spray test; design: key: A: excellent control; B: partial control; C: no control at 500 ppm; conditions: 500 parts per million, fourth instar larvae, three days
# Description: as §1
# Fourth instar larvae of the Mexican bean beetle (Epilachna varivestis, Muls.), reared on Tendergreen bean plants at a temperature of 80±5° F. and 50±5° F. percent relative humdity, were the test insects.
# The test compounds were formulated by diluting the stock suspension with water to give a suspension containing 500 parts of test compound per million parts of final formulation. Tendergreen bean plants of standard height and age were placed on a revolving turntable and sprayed with 100-110 milliliters of test compound formulation by use of a DeVilbiss spray gun set at 40 psig air pressure. This application, which lasted 25 seconds, was sufficient to wet the plants to run-off. As a control, 100-110 milliliters of a water-acetone-emulsifier solution containing no test compound was also sprayed on infested plants. When dry, the paired leaves were separated and each was placed in a 9 centimeter Petri dish lined with moistened filter paper. Five randomly selected larvae were introduced into each dish, and the dishes were closed. The closed dishes were labeled and held at a temperature of 80±5° F., for three days. Although the larvae could easily consume the leaf within 24 to 48 hours, no more food was added. Larvae which were unable to move the length of the body, even upon stimulation, were considered dead.
# as §2
# [3] = tested on: southern armyworm (Spodoptera eridania, (Cram.)) larvae; assay: Southern armyworm leaf spray bait test; design: key: A: excellent control; B: partial control; C: no control at 500 ppm; conditions: 500 parts per million, three days
# Description: as §1
# Larvae of the southern armyworm (Spodoptera eridania, (Cram.)), reared on Tendergreen bean plants at a temperature of 80±5° F. and a reative humidity of 50±5 percent, constituted the test insects.
# The test compounds were formulated by diluting the stock suspension with water to give a suspension containing 500 parts of test compound per million parts of final formulation. Potted Tendergreen bean plants of standard height and age were placed on a revolving turntable and sprayed with 100-110 milliliters of test compound formulation by use of a DeVilbiss spray gun set at 40 psig air pressure. This application, which lasted 25 seconds, was sufficient to wet the plants to run-off. As a control, 100-110 milliliters of a water-acetone-emulsifier solution containing no test compound were also sprayed on infested plants. When dry, the paired leaves were separated and each one was placed in a 9 centimeter Petri dish lines with moistened filter paper. Five randomly selected larvae were introduced into each dish and the dishes were closed. The closed dishes were labeled and held at 80°-85° F. for three days. Although the larvae could easily consume the whole leaf within twenty-four hours, no more food was added. Larvae which were unable to move the length of the body, even upon stimulation by prodding, were considered dead.
# as §2
# [4] = tested on: house flies (Musca domestica, L.); assay: Fly bait test; design: key: A: excellent control; B: partial control; C: no control at 500 ppm; conditions: 500 parts per million, sugar bait, twenty-four hours
# Description: as §1
# Four to six day old adult house flies (Musca domestica, L.), reared according to the specifications of the Chemical Specialties Manufacturing Association (Blue Book, McNair-Dorland Co., N.Y. 1954; pages 243-244, 261) under controlled conditions of 80±5° F. and 50±5 percent relative humidity, were the test insects. The flies were immobilized by anesthetizing them with carbon dioxide. Twenty-five immobilized individuals, males and females, were transferred to a cage consisting of a standard food strainer about five inches in diameter which was inverted over a wrapping-paper-covered surface. The test compounds were formulated by diluting the stock suspension with a 10 percent (by weight) sugar solution to give a suspension containing 500 parts of test compound per million parts of final formulation, by weight. Ten milliliters of the test formulation were added to a souffle cup containing a one-inch square of an absorbent cotton pad. This bait cup was introduced and centered on the blotting paper under the food strainer prior to admitting the anesthetized flies. The caged flies were allowed to feed on the bait for twenty-four hours, at a temperature of 80±5° F. and at a relative humidity of 50±5 percent.
# as §2
# [5] = tested on: egg of the Southern armyworm (Spodoptera eridania (Cram.)); assay: Southern armyworm ovicide test; design: key: A: excellent control; B: partial control; C: no control at 500 ppm; conditions: 500 parts per million, egg dip, four days
# Description: as §1
# The test organism was the egg of the Southern armyworm (Spodoptera eridania (Cram.)) as obtained from adults reared on Tendergreen bean plants at a temperature of 80±5° F. and a relative humidity of 50±5 percent. The eggs were laid on freezer paper (Marlon 717, Copco paper) and then cut into small sections containing one or two egg masses.
# The test compounds were formulated by diluting the stock suspension with water to give a suspension containing 500 parts of test compound per million parts of final formulation. The egg masses were then dipped until they were thoroughly wet (5-10 seconds). They were then placed on a paper towel face up and were allowed to dry for 15-30 minutes. The dry eggs were placed in a 15×60 mm petri dish containing a cotton dental wick saturated with a 5 percent sodium chloride solution to maintain a high level of humidity. The closed dishes were labeled and held at a temperature of 80±5° F. for four days. Larvae that emerged from the egg, even if dead at the time of observation, were recorded as hatched.
# as §2
# [6] = tested on: root-knot nematode, Meloidogyne incognita var. acrita; assay: Nematocide test; design: key: 1: severe galling, equal to untreated plants; 2: moderate galling; 3: light galling; 4: very light galling; 5: no galling, perfect control; conditions: 3.33 m.g. per jar, cucumber, approximately 3 weeks
# Description: The test organism used was the infective migratory larvae of the root-knot nematode, Meloidogyne incognita var. acrita, reared in the greenhouse on roots of cucumber plants. Infected plants were removed from the culture, and the roots were chopped very finely. A small amount of this inoculum was added to a pint jar containing approximately 180 cc. of soil. The jars were capped and incubated for one week at room temperature. During this period eggs of the nematode were hatched, and the larval forms migrated into the soil.
# Ten ml. of the test formulation were added to each of the two jars for each dosage tested. Following the addition of chemical, the jars were capped, and the contents thoroughly mixed on a ball mill for […].
# The test compounds were formulated by a standard procedure of solution in acetone addition of an emulsifier, and dilution with water. Primary screening tests were conducted at 3.33 m.g. of the test compound per jar.
# The jars were left capped at room temperature for a period of 48 hours, and the contents then transferred to 3 inch pots. Subsequently, the pots were seeded to cucumber as an indicator crop and placed in the greenhouse where they were cared for in the normal fashion for approximately 3 weeks.
# The cucumber plants were then taken from the pots, the soil removed from the roots, and the amount of galling visually rated.
# In the test for activity against nematodes activity was rated as follows: […]
# [7] = tested on: housefly adults (Musca domestica); assay: Comparative residual effect in soil; conditions: for Residual effect in soil (mortality), 0 weeks / Residual Activity (weeks): soil concentration four times LD50, housefly; for Residual effect in soil (mortality), 0 weeks: 24 hours; for Residual effect in soil (mortality), 1 week / Residual effect in soil (mortality), 4 weeks: soil concentration four times LD50, 25° C., 90% relative humidity; for Residual effect in soil (mortality), 1 week: 10080 min; for Residual effect in soil (mortality), 4 weeks: 40320 min
# Description: Selected species of the new compounds were evaluated for their residual pesticidal activity in soil. […] The residual activity test were conducted using five to seven-day old housefly adults (Musca domestica).
# The soil mixture used was one part agricultural soil and three parts sand. The agricultural soil was stored in plastic bags in a freezer, immediately after removal from the field. This was done to reduce microbial multiplication. Two weeks prior to use, the soil was thawed and held at room temperature to allow microbial population to equilibrate. The sand and soil were sifted to remove clumps and debris and were then blended by rolling on a roller mill in a closed metal container. The moisture level was adjusted to 15% by weight.
# The concentration in the soil of the compound to be tested was four times the amount (in parts per million) necessary to achieve a mortality rate of 50% on contact with the soil (LD50). This is in accordance with the procedure developed by C. R. Harris of the Research Institute, Canadian Department of Agriculture, London, Ontario. Such procedure is disclosed in "Biological Activity of Chloropyrifos, Chlorpyrifor-Methyl, Phorate, and Counter® in Soil", The Canadian Entomologist, Vol. 109, pp. 1115-1120 (August 1977); and in "Laboratory Studies on the Persistance of Biological Activity of Some Insecticides in Soils", Journal of Economic Entomology, Vol. 62, No. 6, pp. 1437-1441 (December 1969).
# An appropriate amount of compound was dissolved in an acetone--Triton solution and was diluted with water. Five mililiters of the formulated chemical was applied to four ounces of soil mixture and rolled in a 16-ounce glass jar to blend the compound evenly with the soil. Ten mililiters of granular cane sugar was then mixed thoroughly with the treated soil in an eight-ounce plastic container.
# Twenty-five housefly adults, anesthetized with CO2, were then transferred to the soil and were covered with a perforated plastic lid. The test containers were held for 24 hours in a constant environment at a temperature of 80±5° F. and a relative humidity of […]. Mortality was based on the ability of the fly to move in a normal manner without spinning.
# The above process was repeated on treated soil which had been incubated at 25° C. and 90% relative humidity for 1, 4, 6 and 8 weeks after initial exposure. This was necessary because the soil is incubated without sugar, sugar being added at the time of reinfestation. For this reason, appropriate volumes of soil had to be treated at the start of the soil test to last for the expected residual period.
structure (smiles),measurement,setting,value
"CSC(C)=NOC(=O)N(C)SN(C)C(=O)Oc1ccc(C(=O)O)cc1 [Compound 4, S-Methyl-N-[[[N'-[[N""-[(4-hydroxycarbonylphenoxy)carbonyl]-N""-methylaminosulfenyl]]-N'-methylcarbamoyloxy]]]thioacetimidate]","Aphids, pesticidal activity rating",[1],B
same,"Mexican Bean Beetle, pesticidal activity rating",[2],A
same,"Southern Armyworm, pesticidal activity rating",[3],A
same,"Housefly, pesticidal activity rating",[4],A
CSC(C)=NOC(=O)N(C)SN(C)C(=O)Oc1ccc(C(C)=O)cc1 [Compound 2],"Aphids, pesticidal activity rating",[1],A
same,"Mexican Bean Beetle, pesticidal activity rating",[2],A
same,"Southern Armyworm, pesticidal activity rating",[3],A
same,"Housefly, pesticidal activity rating",[4],A
same,"Southern Armyworm (egg), pesticidal activity rating",[5],A
same,"Root-Knot Nematode, galling rating",[6],5
CSC(C)=NOC(=O)N(C)SN(C)C(=O)Oc1ccccc1C=O [Compound 8],"Aphids, pesticidal activity rating",[1],A
same,"Mexican Bean Beetle, pesticidal activity rating",[2],A
same,"Southern Armyworm, pesticidal activity rating",[3],A
same,"Housefly, pesticidal activity rating",[4],A
same,"Southern Armyworm (egg), pesticidal activity rating",[5],B
same,"Root-Knot Nematode, galling rating",[6],4
CSC(C)=NOC(=O)N(C)SN(C)C(=O)Oc1cc(C)c(C)cc1C(C)=O [Compound 9],"Aphids, pesticidal activity rating",[1],A
same,"Mexican Bean Beetle, pesticidal activity rating",[2],A
same,"Southern Armyworm, pesticidal activity rating",[3],A
same,"Housefly, pesticidal activity rating",[4],A
same,"Southern Armyworm (egg), pesticidal activity rating",[5],A
same,"Root-Knot Nematode, galling rating",[6],1
CSC(C)=NOC(=O)N(C)SN(C)C(=O)Oc1ccc(C(=O)c2ccccc2)cc1 [Compound 6],"Aphids, pesticidal activity rating",[1],A
same,"Mexican Bean Beetle, pesticidal activity rating",[2],A
same,"Southern Armyworm, pesticidal activity rating",[3],A
same,"Housefly, pesticidal activity rating",[4],A
same,"Southern Armyworm (egg), pesticidal activity rating",[5],A
same,"Root-Knot Nematode, galling rating",[6],4
"CNC(=O)ON=C(C)SC [Methomyl, methyl N[[(methylamino)carbonyl]oxy]ethanimidothioate]","Residual effect in soil (mortality), 0 weeks",[7],100
same,"Residual effect in soil (mortality), 1 week",[7],100
same,"Residual effect in soil (mortality), 4 weeks",[7],15
same,Residual Activity (weeks),[7],less than 4 weeks
CSC(C)=NOC(=O)N(C)SN(C)C(=O)Oc1cccc(C)c1 [A],"Residual effect in soil (mortality), 0 weeks",[7],100
same,"Residual effect in soil (mortality), 1 week",[7],100
same,"Residual effect in soil (mortality), 4 weeks",[7],23
same,Residual Activity (weeks),[7],less than 4 weeks
CSC(C)=NOC(=O)N(C)SN(C)C(=O)Oc1cc(C)c(C)c(C)c1 [B],"Residual effect in soil (mortality), 0 weeks",[7],100
same,"Residual effect in soil (mortality), 1 week",[7],100
same,"Residual effect in soil (mortality), 4 weeks",[7],0
same,Residual Activity (weeks),[7],less than 4 weeks
